Key:
Type in all cases: cell-based, human
[1] = test system: PC-3 cells; test: Cell growth of PC-3 cells (cell counting); details: three days; for cell growth in the presence of cell cycle inhibitor alone: roscovitine 10 or 100 nM, butyrate 10 or 100 μM, sulforaphane 1 or 10 nM
Experimental: (§1) The PC-3 and DU-145 cells (the cell number of 1×10^5/in 1 ml of a culture fluid per hole using a 24-hole plate) were cultured in a DMEM culture fluid (containing 10% of FBS, 1% of P/S, and 1% of fungizone) containing the DHMBA (1 and 10 μM) under 5% of CO2, at 37° C., for one, two, three, four, and six days. […] After the culture, 0.1 ml of 0.05% trypsin-EDTA solution obtained by dissolving the cells adhering to the bottom surface of the culture dish in PBS (Thermo Fisher Scientific, Waltham, MA, USA) not containing Ca^2+/Mg^2+ was added, incubation was performed at 37° C. for two minutes to release the adhering cells, and 0.9 ml of the DMEM culture fluid containing 10% of FBS and 1% of P/S was added to stop the reaction. The cell number in the cell suspension was counted by the method described in the item of “Measurement of Cell Number.”
(§2) After the culture of the cells, 0.1 ml of 0.05% trypsin-EDTA solution obtained by dissolving the cells adhering to the bottom surface of the culture dish in PBS (Thermo Fisher Scientific, Waltham, MA, USA) not containing Ca^2+/Mg^2+ was added, incubation was performed at 37° C. for two minutes to release the adhering cells, and 0.9 ml of the DMEM culture fluid containing 10% of FBS and 1% of P/S was added to stop the reaction. The visible cells were counted by the Olympus MTV-3 microscope using a hemocytometer (Sigma-Aldrich).
FIG. 1(C) is a diagram in which the PC-3 cells (1×10^5 cells/per well of a 24-well plate) were cultured under 5% of CO2, at 37° C., for one to six days in a DMEM culture fluid (containing 10% of FBS, 1% of P/S, and 1% of fungizone) containing the DHMBA (10 μM).
(§3) In FIGS. 1(D) and 1(E), the PC-3 cells (1×10^5 cells/per well of a 24-well plate) were cultured under 5% of CO2, at 37° C., for three (FIG. 1D) and six (FIG. 1E) days in a DMEM culture fluid (containing 10% of FBS, 1% of P/S, and 1% of fungizone) containing the DHMBA (0.01, 0.1, 1, 10, 100, and 1000 μM). After the culture, the cells adhered to the bottom surface of the dish were removed and counted. […] 1-way ANOVA, Tukey-Kramer post-test.
FIGS. 3(A) and 3(B) are diagrams in which the PC-3 cells (1×10^5 cells/ml/per well of a 24-well plate) were cultured under 5% of CO2, at 37° C., for three days in a DMEM culture fluid (containing 10% of FBS, 1% of P/S, and 1% of fungizone) containing the DHMBA (10 μM) containing cell cycle inhibitors, roscovitine (10 and 100 nM), butyrate (10 and 100 μM), and sulforaphane (1 and 10 nM).
After the culture, the cells adhered to the dish were removed and counted. […] 1-way ANOVA, Tukey-Kramer post-test.
In the drawing, the PC-3 cells (1×10^5/in 1 ml of a culture fluid per hole using a 24-hole plate) were cultured under 5% of CO2, at 37° C., for three days in a DMEM culture fluid (containing 10% of FBS, 1% of P/S, and 1% of fungizone) in the presence of the DHMBA (10 μM) and an aryl hydrocarbon receptor inhibitor CH223191 (1, 10, or 25 μM) to examine the action on cell growth.

[2] = test system: DU-145 cells; test: Cell growth of DU-145 cells (cell counting); details: three days, roscovitine 10 or 100 nM, butyrate 10 or 100 μM, sulforaphane 1 or 10 nM
Experimental: as §1, §2
FIG. 2(C) is a diagram in which the DU-145 cells (1×10^5 cells/per well of a 24-well plate) were cultured under 5% of CO2, at 37° C., for one to six days in a DMEM culture fluid (containing 10% of FBS, 1% of P/S, and 1% of fungizone) containing the DHMBA (10 μM).
as §3, with “2(D)” for “1(D)”, “2(E),” for “1(E),”, “DU-145” for “PC-3”, “2D)” for “1D)”, “2E)” for “1E)”, “the” for “the bottom surface of the”

[3] = test system: PC-3 cells; test: Cell death of sub-confluent PC-3 cells (adherent cell counting)
Experimental: The PC-3 and DU-145 cells (1×10^5/in 1 ml of a culture fluid per hole using a 24-hole plate) were cultured in a DMEM culture fluid (containing 10% of FBS, 1% of P/S, and 1% of fungizone) under 5% of CO2, at 37° C., for three days, and when the cells reached sub-confluence, the culture fluid was exchanged for the one containing the DHMBA (0.01, 0.1, 1, 10, 100, or 1000 μM), and the cells were cultured for 24 and 48 hours. After the culture, the cells adhering to the bottom surface of the dish were removed and counted. In another experiment, after the culture for three days, when the cells reached sub-confluence, the culture fluid was exchanged for a culture fluid containing the DHMBA (1 or 10 μM) and a caspase-3 inhibitor (10 μM), and the cells were counted after the culture for 48 hours. Further, after the culture for three days, when the cells reached sub-confluence, the culture fluid was exchanged for a culture fluid obtained by adding gemcitabine (0.1, 1, 10, 50 or 100 nM) or CH223191 (1, 10, and 25 μM) to a DMEM culture fluid containing the DHMBA (1 or 10 μM) or not containing the DHMBA, and the cells were counted after the culture for 48 hours.
as §2
(§4) In the drawing, the PC-3 (FIGS. 5(A) and 5(B)) and DU-145 (FIGS. 5(D) and 5(E)) cells (1×10^5/in 1 ml of a culture fluid per hole using a 24-hole plate) were cultured under 5% of CO2, at 37° C., for three days in a DMEM culture fluid (containing 10% of FBS, 1% of P/S, and 1% of fungizone), and when the cells reached sub-confluence, the culture fluid was exchanged for the one containing the DHMBA (0.01, 0.1, 1, 10, 100, or 1000 μM), and the cells were cultured for 24 and 48 hours. In the drawing, after the culture, the cells adhering to the dish were counted.
In another experiment, after the culture for three days, when the cells reached sub-confluence, for the PC-3 (FIG. 5(C)) or DU-145 (FIG. 5(F)) cells, the culture fluid was exchanged for a culture fluid containing the DHMBA (1 or 10 μM) and a caspase-3 inhibitor (10 μM), and the cells were counted after the culture for 48 hours. Further, after the culture for three days, when the cells reached sub-confluence, the culture fluid was exchanged for a culture fluid obtained by adding gemcitabine (0.1, 1, 10, 50 or 100 nM) or CH223191 (1, 10, and 25 μM) to a DMEM culture fluid containing the DHMBA (1 or 10 μM) or not containing the DHMBA, and the cells were counted after the culture for 48 hours. After the culture, the cells adhered to the dish were removed and counted. Each piece of data is shown with a mean value and a standard deviation of values obtained from eight wells of the different cultured cells. *p<0.001, comparison with the control (gray bar). 1-way ANOVA, Tukey-Kramer post-test.
as §4, with “The” for “In the drawing, the”, “PC-3” for “PC-3 (FIGS. 5(A) and 5(B)) and DU-145 (FIGS. 5(D) and 5(E))”, “gemcitabine (1,” for “DHMBA (0.01, 0.1, 1,”, “10, 50,” for “10,”, “250 nM),” for “1000 μM),”, “for” for “for 24 and”
After the culture for three days, when the cells reached sub-confluence, the culture fluid was exchanged for a culture fluid containing the DHMBA (1 or 10 μM) and gemcitabine (1, 10, or 100 nM), and the cells were counted after the culture for 48 hours. […]

Compound | cell growth in the presence of cell cycle inhibitor alone [1] | cell growth in the presence of cell cycle inhibitor alone [2] | further results
COc1cccc(-c2cc(=O)c3ccccc3o2)c1N [PD98059, reference compound] |  |  | cell growth in the presence of intracellular signaling inhibitor alone ([1]; wortmannin 10 or 100 nM, PD98059 1 or 10 μM, staurosporine 1 or 10 nM): inhibited
C[S+]([O-])CCCCN=C=S (centres unmarked) [sulforaphane, reference compound] | inhibited | inhibited | 
Cc1ccccc1N=Nc1ccc(NC(=O)c2ccnn2C)c(C)c1 [CH223191, 2-Methyl-2H-pyrazole-3-carboxylic acid (2-methyl-4-o-tolylazo-phenyl)-amide, reference compound] |  |  | cell death induction by CH223191 alone ([3]; sub-confluent, CH223191 1, 10, or 25 μM, 48 hours): did not cause the cell death induction; action of CH223191 alone on cell growth ([1]; CH223191 1, 10, or 25 μM): no significant effect
CC[C@H](CO)Nc1nc(NCc2ccccc2)c2ncn(C(C)C)c2n1 [roscovitine, reference compound] | inhibited | inhibited | 
Nc1ccn([C@@H]2O[C@H](CO)[C@@H](O)C2(F)F)c(=O)n1 [gemcitabine, reference compound] |  |  | cell death by gemcitabine alone ([3]; gemcitabine 1, 10, 50, 100, and 250 nM, three days as printed): significant cell deaths

Reference: patent US20240350430A1, “GROWTH INHIBITOR OF METASTATIC HUMAN PROSTATE CANCER CELLS” (Watanabe Oyster Laboratory Co., Ltd., priority 2021, published 2024)
